“And” between values parts separate entries of the source, which are not always exact repeats. Equal entries are not always repeated. Where two headings read alike, the source gives them in different places.
Experiments:
[1] = UV-Vis spectrophotometric titrations: protonation constants of MNZ; type: physicochemical; conditions: t = 25 °C; for logβ UV: I = 0.15 mol L^-1
Protocol: As widely reported in the literature, the high ability of L to absorb in the UV range has often been used to determine quantitatively and qualitatively this antibiotic in waters. Various spectrophotometric titrations on solutions containing L and M-L mixtures were performed to investigate L spectral behavior and to confirm the protonation and formation constants values as well as the speciation model obtained by potentiometry, as already shown with other systems.
The spectrophotometric titrations were performed with a Varian Cary 50 UV-Vis spectrophotometer characterized by an optical fiber with a fixed 1 cm path length. The system was interfaced to a PC by the Varian Cary WinUV software. For all titrations, a Thermo-Fisher glass electrode was also used to record simultaneously the couple of data absorbance (A) and e.m.f. (mV) vs. volume of titrant (mL), for each titration point. The analyses were carried out in a thermostated cell, in which N2 was bubbled in solution to avoid CO2 and O2.
(§1) The protonation constant of MNZ (L), formation constant values of Ca^2+(M)-MNZ (L), and titration parameters (analytical concentration of the reagents, standard potential E^0, junction potential) were determined by using BSTAC and STACO programs. LIANA program has provided the parameters characterizing the dependence of the protonation and formation constant values on the temperature and ionic strength. More details on software are present in ref. [59]. ^1H NMR data were processed by HypNMR software, which allows for calculating protonation and formation constant values and the individual chemical shift of species through the observed signals and assuming fast mutual exchange in the NMR time scale. UV-Vis data are processed by the HypSpec program, which allows refining of the protonation and formation constant as well as the molar absorption coefficient values (ε) of the species. The speciation diagrams and the formation percentage of the species are determined by the Hyss program.

[2] = Dependence of protonation constants on ionic strength (Debye-Hückel type equation); type: physicochemical; conditions: t = 25 °C, NaCl; for log^Tβ (constant at infinite dilution): extrapolated to I = 0 mol L^-1
Description: The choice to carry out the experiments at various ionic strengths made it possible to study the dependence of the values of the protonation and formation constants on the ionic strength, expressed by a Debye-Hückel type equation, reported below: (5) logβ=logβ^T − 0.51 z* I/1 + 1.5 I + CI where β^T is the protonation constant at infinite dilution, z* is the parameter that refers to the charges present in the solution corresponding to ∑z^2reagents − ∑z^2products, and C refers to the empirical parameter that depends on the stoichiometric coefficients and on the charges. Using Equation (5) and equilibrium constants at various ionic strength values, the formation constants extrapolated to I = 0 mol L^−1, together with the empirical parameter C, were obtained.
as §1

[3] = parameters: method as in earlier work; conditions: t = 25 °C, I = 0.5 mol L^-1 in KCl, potentiometry; cited from earlier work
[4] = Dependence of Ca^2+-MNZ formation constant on temperature (van't Hoff equation), thermodynamic parameters; type: physicochemical; conditions: Ca + LH = CaLH; t = 298.15 K, I = 0.15 mol L^-1 NaCl
Protocol: The protonation and formation constants values acquired at the three different temperatures of 15, 25, and 37 °C, listed in Table 1, were used to study their dependence on temperature, as already shown for several systems. The data obtained by the potentiometric measurements were analyzed using the following van’t Hoff equation:logβT = logβθ + ΔH^0(1/θ − 1/T) R ln 10(6) where logβT is the stability constant at a certain temperature (expressed in kelvin), while logβθ is the stability constant at t = 298.15 K, and R is the universal gas constant expressed as 8.314 J K^−1 mol^−1. Using the equation just reported, it was possible to calculate the protonation and formation enthalpies change values, together with Gibbs free energy and entropy changes.
as §1

[5] = Distribution diagram of MNZ species vs pH; type: physicochemical; conditions: t = 25 °C, I = 0.15 mol L^-1, CL = 2 mmol L^-1, 4 ≤ pH ≤ 10
Protocol: as §1

Structure (SMILES): Cc1ncc([N+](=O)[O-])n1CCO [MNZ, 2-Methyl-5-nitroimidazole-1-ethanol]
- logβ UV ([1]; L + 2H = LH2): 14.20(6)
- logβ UV ([1]; L + H = LH): 11.73(2) ^1
- logK2 (protonation constant) ([1]; UV spectrophotometry, I = 0.15 mol L^-1 in NaCl): 2.47
- C (empirical parameter for dependence on ionic strength, Equation (5)) ([2]; L + 2H = LH2): 1.16(6)
- log^Tβ (constant at infinite dilution) ([2]; L + 2H = LH2): 14.4(1)
- C (empirical parameter for dependence on ionic strength, Equation (5)) ([2]; L + H = LH): 0.7(2) ^1
- log^Tβ (constant at infinite dilution) ([2]; L + H = LH): 12.0(3) ^1
- logK2 (protonation constant) [3]: 2.68
- TΔS [4]: -4.78 kcal/mol
- ΔG [4]: -3.39 kcal/mol
- ΔH [4]: -34 kJ mol^-1 and −34(8) kJ mol^-1
- maximum ligand fraction of the mono-protonated species [5]: over 0.9

From paper PMC9457533, “Study on Metronidazole Acid-Base Behavior and Speciation with Ca^2+ for Potential Applications in Natural Waters” (Molecules, 2022)
